# Data from patent US10155766B2, “Pyrazolopyrimidine antibacterial agents” (priority 2016, dated 2018).
# Entries after “also recorded” stand apart in the source; their conditions may differ.
# Key:
# [1] = system: Pseudomonas aeruginosa (ATCC 27853); test: microbe, parasite or virus in culture; type: cell-based; conditions: for zone of inhibition at 100 µM / zone of inhibition at 500 µM / zone of inhibition at 1000 µM: Pseudomonas aeruginosa, ATCC27853, read-out: Zone of inhibition (diameter, in millimeter) P. aeruginosa; for zone of inhibition at 100 µM: Conc. 0.1 mM; for zone of inhibition at 500 µM: Conc. 0.5 mM; for zone of inhibition at 1000 µM: Conc. 1.0 mM
# [2] = target: T1, BtIspD (Burkholderia thailandensis, UniProt Q2SWT6); type: binding
# T1 construct: 6xHis (AVA0421 vector, 3C-cleavable) (N, cleaved yes); made in house; host or cells: E. coli BL21(DE3)R3 Rosetta Oxford
# T1 sequence (Q2SWT6 1-236): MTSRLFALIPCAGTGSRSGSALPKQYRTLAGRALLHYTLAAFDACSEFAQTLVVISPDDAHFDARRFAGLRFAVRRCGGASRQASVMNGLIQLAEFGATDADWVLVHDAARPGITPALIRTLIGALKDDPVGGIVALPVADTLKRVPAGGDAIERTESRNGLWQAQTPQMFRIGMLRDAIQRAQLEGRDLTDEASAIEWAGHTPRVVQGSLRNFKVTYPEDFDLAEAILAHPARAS
# [3] = system: Burkholderia thailandensis (E 264); test: microbe, parasite or virus in culture; type: cell-based; conditions: for zone of inhibition at 100 µM / zone of inhibition at 500 µM / zone of inhibition at 1000 µM: Burkholderia thailandensis, read-out: Zone of inhibition (diameter, in millimeter) B. thailandensis; for zone of inhibition at 100 µM: Conc. 0.1 mM; for zone of inhibition at 500 µM: Conc. 0.5 mM; for zone of inhibition at 1000 µM: Conc. 1.0 mM
# [4] = system: Mycobacterium abscessus (Ma) IspE; type: binding
# [5] = target: T2, Mycobacterium paratuberculosis (Mp) IspD (Mycolicibacterium paratuberculosis, UniProt Q743W5); type: binding
# T2 sequence (Q743W5 1-235): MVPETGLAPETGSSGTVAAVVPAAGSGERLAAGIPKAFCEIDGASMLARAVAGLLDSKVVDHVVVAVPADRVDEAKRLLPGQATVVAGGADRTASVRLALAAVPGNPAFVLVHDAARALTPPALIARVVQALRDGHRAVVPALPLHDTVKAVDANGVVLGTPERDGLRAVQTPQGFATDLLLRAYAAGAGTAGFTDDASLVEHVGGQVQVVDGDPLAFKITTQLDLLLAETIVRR
# [6] = target: BpIspF (Burkholderia pseudomallei, UniProt Q63T71); type: binding, B. pseudomallei
# [7] = Solubility observed in work-up; conditions: in water and ethyl acetate
# [8] = system: BtIspE; type: binding, Burkholderia thailandensis
# Sequence of BpIspF (Q63T71 whole entry, looked up): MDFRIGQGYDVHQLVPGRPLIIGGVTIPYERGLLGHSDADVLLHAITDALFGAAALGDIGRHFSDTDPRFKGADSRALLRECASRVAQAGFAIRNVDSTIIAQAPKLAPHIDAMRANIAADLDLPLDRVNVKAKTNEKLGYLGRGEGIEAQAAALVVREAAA
SMILES,growth inhibition of P. aeruginosa (in words) [1],zone of inhibition at 100 µM [1] [mm],zone of inhibition at 500 µM [1] [mm],zone of inhibition at 1000 µM [1] [mm],STD-NMR binding to BtIspD (in words) [2],melting point [°C],growth inhibition of B. thailandensis (in words) [3],zone of inhibition at 100 µM [3] [mm],zone of inhibition at 500 µM [3] [mm],zone of inhibition at 1000 µM [3] [mm],fragment binding to MaIspE (in words) [4],fragment binding to MpIspD (in words) [5],fragment binding to BpIspF (in words) [6],solubility (in words) [7],concentration at which inhibitory activity against kanamycin resistant P. aeruginosa is shown [1] [mM],STD-NMR binding to BtIspE (in words) [8]
Cn1ncc2c(NCc3ccc(Cl)cc3)ncnc21 [Compound 17],did not show measurable growth inhibition,0,0,0,strongest binders,197 to 199,did not show measurable growth inhibition,0,0,0,hit and clear fragment binder,hit and clear fragment binder,very weak binder below the STD-NMR hit threshold,–,–,–
Cn1ncc2c(NCCO)ncnc21 [Compound 3],–,0,15,21,–,196 to 198,–,0,0,0,–,–,–,partially soluble,–,–
Cn1ncc2c(NCCc3ccc(Cl)cc3Cl)ncnc21 [Compound 29],measurable potency,0,12,18,strongest binders,145 to 147,most potent compound tested,6,10,18,–,–,–,–,0.5,high % STD values; also recorded: highest % STD value; also recorded: significant interactions with the active site of BtIspE
